Assay results published in BindingDB's records for patent US10087191 (Jiangsu Hengrui Medicine, 2018).

molecular target: T1, Estrogen receptor (Homo sapiens, UniProt P03372); test: Biological Assay
T1 sequence (P03372 whole entry): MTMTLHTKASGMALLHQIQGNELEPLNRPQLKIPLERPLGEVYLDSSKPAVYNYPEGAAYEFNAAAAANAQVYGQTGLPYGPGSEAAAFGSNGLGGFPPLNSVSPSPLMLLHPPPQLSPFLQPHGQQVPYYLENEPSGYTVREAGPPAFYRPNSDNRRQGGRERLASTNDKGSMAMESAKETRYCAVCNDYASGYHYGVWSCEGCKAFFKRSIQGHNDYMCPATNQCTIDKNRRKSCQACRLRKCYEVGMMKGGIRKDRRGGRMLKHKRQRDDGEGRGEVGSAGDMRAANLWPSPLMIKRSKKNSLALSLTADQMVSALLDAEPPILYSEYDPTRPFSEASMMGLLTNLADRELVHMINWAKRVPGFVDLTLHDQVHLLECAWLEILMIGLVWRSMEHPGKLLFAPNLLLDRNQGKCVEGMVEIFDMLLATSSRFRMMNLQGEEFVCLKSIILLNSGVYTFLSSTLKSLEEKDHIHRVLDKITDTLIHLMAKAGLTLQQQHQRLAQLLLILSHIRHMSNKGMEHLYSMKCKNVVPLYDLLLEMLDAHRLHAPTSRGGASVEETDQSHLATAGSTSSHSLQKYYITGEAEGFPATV

Row | IC50 [nM] | SMILES
1 | 2.97 | CC1Cc2c(oc3c(F)cccc23)C(c2c(F)cc(/C=C/C(=O)O)cc2F)N1CC(C)(C)F (stereo not given) [US10087191, Example 84]
2 | 1.52 | CCCn1cc(-c2ccc3c(c2)CC(C)N(CC(C)(C)F)C3c2c(F)cc(/C=C/C(=O)O)cc2F)cn1 (stereo not given) [US10087191, Example 18]
3 | 7.43 | CC1Cc2cc(-c3nnn(C)n3)ccc2C(c2c(F)cc(/C=C/C(=O)O)cc2F)N1CC(C)(C)F (stereo not given) [US10087191, Example 51]
4 | 15 | CC1Cc2c(oc3ccc(Br)cc23)C(c2c(F)cc(/C=C/C(=O)O)cc2F)N1CC(C)(C)F (stereo not given) [US10087191, Example 87]
5 | 3.4 | Cc1ncc(-c2ccc3c(c2)CC(C)N(CC(C)(C)F)C3c2c(F)cc(/C=C/C(=O)O)cc2F)o1 (stereo not given) [US10087191, Example 49]
6 | 2.11 | CC1Cc2cc(-c3cnn(C(F)F)c3)ccc2C(c2c(F)cc(/C=C/C(=O)O)cc2F)N1CC(C)(C)F (stereo not given) [US10087191, Example 13]
7 | 2.28 | CC1Cc2cc(-c3cccnc3)ccc2C(c2c(F)cc(/C=C/C(=O)O)cc2F)N1CC(C)(C)F (stereo not given) [US10087191, Example 28]
8 | 1.17 | CCn1cc(-c2cc3c(cc2F)C(c2c(F)cc(/C=C/C(=O)O)cc2F)N(CC(C)(C)F)C(C)C3)cn1 (stereo not given) [US10087191, Example 17]
9 | 11.4 | CCc1nc(-c2ccc3c(c2)CC(C)N(CC(C)(C)F)C3c2c(F)cc(/C=C/C(=O)O)cc2F)no1 (stereo not given) [US10087191, Example 46]
10 | 27.3 | CC1Cc2cc(-c3cnn(CCO)c3)ccc2C(c2c(F)cc(/C=C/C(=O)O)cc2F)N1CC(C)(C)F (stereo not given) [US10087191, Example 23]
11 | 19.8 | CC1Cc2cc(-c3ccc(N)nc3)ccc2C(c2c(F)cc(/C=C/C(=O)O)cc2F)N1CC(C)(C)F (stereo not given) [US10087191, Example 27]

Second part, the compound before the results:

Row | SMILES | IC50 [nM]
12 | CC1Cc2cc(-c3ccc(-c4cnn(C)c4)nc3)ccc2C(c2c(F)cc(/C=C/C(=O)O)cc2F)N1CC(C)(C)F (stereo not given) [US10087191, Example 61] | 17.4
13 | CC1Cc2c(ccc3[nH]ncc23)C(c2c(F)cc(/C=C/C(=O)O)cc2F)N1CC(C)(C)F (stereo not given) [US10087191, Example 70] | 0.77
14 | CC1Cc2c(oc3ccccc23)C(c2c(F)cc(/C=C/C(=O)O)cc2F)N1CC(C)(C)F (stereo not given) [US10087191, Example 4] | 0.73
15 | CCn1cc(-c2ccc3oc4c(c3c2)CC(C)N(CC(C)(C)F)C4c2c(F)cc(/C=C/C(=O)O)cc2F)cn1 (stereo not given) [US10087191, Example 76] | 1.39
16 | CC1Cc2c(oc3cccc(F)c23)C(c2c(F)cc(/C=C/C(=O)O)cc2F)N1CC(C)(C)F (stereo not given) [US10087191, Example 73] | 0.45
17 | CC1Cc2cc(-c3cnn(C)c3)c(F)cc2C(c2c(F)cc(/C=C/C(=O)O)cc2F)N1CC(C)(C)F (stereo not given) [US10087191, Example 16] | 1.36
18 | CC(C)CN1C(C)Cc2c(ccc3[nH]ncc23)C1c1c(F)cc(/C=C/C(=O)O)cc1F (stereo not given) [US10087191, Example 92] | 0.43
19 | CC1Cc2cc3c(cc2C(c2c(F)cc(/C=C/C(=O)O)cc2F)N1CC(C)(C)F)OCO3 (stereo not given) [US10087191, Example 1] | 0.77
20 | CC1Cc2sc3ccccc3c2C(c2c(F)cc(/C=C/C(=O)O)cc2F)N1CC(C)(C)F (stereo not given) [US10087191, Example 6] | 4.9
